{"source": "patent US20160115540A1", "about": "“PRODRUGS AND DRUGS” (Biogen MA Inc., priority 2013, published 2016)", "test_system": "whole blood", "test": "Transcriptional profiling on Affymetrix GeneChips, single dose, naïve mice: whole blood", "format": "in vivo, C57BL/6 mice", "conditions": "for Number of differentially expressed genes identified: Whole blood: Naïve, Single Dose", "procedure": "Treated mice were sacrificed at 2, 7, or 12 hours. Tissues (liver, spleen, kidney, jejunum, cortex, hippocampus, striatum and whole blood) were collected and analyzed by transcriptional profiling on mouse Affymetrix GeneChips. […] While the experiments were performed in mice, the human homolog of the identified murine gene transcript is included in the tables. Additional genes that were identified in the study are provided in APPENDIX A, filed herewith on even date, the contents of which are herein incorporated by reference in their entirety. Additional studies are described in the Examples, and genes identified in the studies are provided in […], and APPENDIX E filed herewith on even date, the contents of each of which are herein incorporated by reference in their entirety. […] Tissues (liver, spleen, kidney, jejunum, cortex, hippocampus, striatum and whole blood) were collected and analyzed by transcriptional profiling on mouse Affymetrix GeneChips. […] Animals were exposed to CO2 and whole blood collected via cardiac puncture. Two 100 μl aliquots of whole blood were collected in 1.5 mL microcentrifuge tubes and snap frozen in liquid nitrogen. Peripheral (liver, spleen, kidney and jejunum) and CNS brain (cerebellum, hippocampus, striatum and cortex) tissues were harvested and snap frozen in liquid nitrogen, with special care taken to collect tissues of similar size and from the same location. All samples were stored at -80° C. until RNA extraction was conducted. 50 ul of snap frozen mouse blood was re-suspended in lysis buffer with proteinase K and arrayed into deep-well plates for automated RNA extraction. RNA extractions were completed on […] (Beckman Coulter, Indianapolis, Ind.) using Agencourt RNAdvance Blood kit (Part number A35604) according to the manufacturer's specifications. RNA integrity was assessed using the HT RNA reagent kit (Part number 760410, Caliper Life Sciences, Hopkinton, Mass.) using a LabChip GX (PerkinElmer, Waltham, Mass.). RNA samples with a RQS score of >8.0 were considered high quality for downstream microarray processing. […] Two micrograms of biotin labeled […] probe were hybridized to Affymetrix GeneChip Affymetrix HT_MG-430_PM plate arrays with modified conditions as described in […] et al. Washing and staining of the hybridized arrays were completed as described in the GeneChip Expression analysis technical manual for HT plate arrays using the Genechip® Array Station (Affymetrix, Santa Clara, Calif.) with modifications as described in […] et al. The processed GeneChip® plate arrays were scanned using GeneTitan scanner (Affymetrix, Santa Clara, Calif.). Affymetrix scans were subject to quality control (QC) measures. These tests included a visual inspection of the distribution of raw signal intensities and an assessment of RNA degradation, relative log expression (RLE), and normalized unsealed standard error (NUSE). All sample scans that passed these QC metrics were included in the analysis. All CEL files were subjected to GC-content-based Robust Multi-array Average (GCRMA) normalization (version 2.20.0) (Irizarry R A, et al. Nucleic Acids Res 2003; 31:e15; Li C, et al. Genome Biol 2001; 2:[…]0032). […] Stat Appl Genet Mol Biol 2004; 3:Article3). […] Springer Science+Business Media 2005).", "key": {"[1]": {"conditions": "100 mpk, vs Vehicle, 2 h after last dosing"}, "[2]": {"conditions": "100 mpk, vs Vehicle, 7 h after last dosing"}, "[3]": {"conditions": "100 mpk, vs Vehicle, 12 h after last dosing"}, "[4]": {"conditions": "whole blood, 100DMF-vs-Veh, 2 h"}, "[5]": {"conditions": "whole blood, 100DMF-vs-Veh, 12 h"}, "[6]": {"conditions": "whole blood, 100MMF-vs-Veh, 12 h"}}, "note": "Where a name gives a salt, the structure may show the parent alone.", "data": [{"smiles": "COC(=O)/C=C/C(=O)OC", "note": "[DMF, dimethyl fumarate]", "values": [{"measurement": "Number of genes, DMF Only / MMF Only", "setting": "Blood", "value": 6}, {"measurement": "Cpsf2 (1420937_PM_at) differential expression", "setting": "Blood, 2 hr", "value": "−1.65"}, {"measurement": "Gzma (1417898_PM_a_at) differential expression", "setting": "Blood, 12 hr", "value": 1.92}, {"measurement": "Klrb1b (1445399_PM_at) differential expression", "setting": "Blood, 12 hr", "value": 1.65}, {"measurement": "Klrc1 (1425005_PM_at) differential expression", "setting": "Blood, 12 hr", "value": 1.85}, {"measurement": "Klre1 (1458642_PM_at) differential expression", "setting": "Blood, 12 hr", "value": 1.85}, {"measurement": "Ncr1 (1422089_PM_at) differential expression", "setting": "Blood, 12 hr", "value": 1.86}, {"measurement": "Number of differentially expressed genes identified: Whole blood", "setting": "100 mpk DMF-vs-100 mpk MMF, 2 h after last dosing", "value": 0}, {"measurement": "Number of differentially expressed genes identified: Whole blood", "setting": "100 mpk DMF-vs-100 mpk MMF, 7 h after last dosing", "value": 1}, {"measurement": "Number of differentially expressed genes identified: Whole blood", "setting": "100 mpk DMF-vs-100 mpk MMF, 12 h after last dosing", "value": 0}, {"measurement": "Number of differentially expressed genes identified: Whole blood", "setting": "[1]", "value": 2}, {"measurement": "Number of differentially expressed genes identified: Whole blood", "setting": "[2]", "value": 0}, {"measurement": "Number of differentially expressed genes identified: Whole blood", "setting": "[3]", "value": 5}, {"measurement": "differentially expressed genes", "setting": "whole blood, 100DMF-vs-100MMF, 2 h", "value": "None"}, {"measurement": "FC Lman1 (1444037_PM_at)", "setting": "whole blood, 100DMF-vs-100MMF, 7 h", "value": 1.63}, {"measurement": "differentially expressed genes", "setting": "whole blood, 100DMF-vs-100MMF, 12 h", "value": "None"}, {"measurement": "FC Cpsf2 (1420937_PM_at)", "setting": "[4]", "value": "−1.65"}, {"measurement": "FC probe 1441373_PM_at", "setting": "[4]", "value": "−1.70"}, {"measurement": "FC Gzma (1417898_PM_a_at)", "setting": "[5]", "value": 1.92}, {"measurement": "FC Klrb1b (1445399_PM_at)", "setting": "[5]", "value": 1.65}, {"measurement": "FC Klrc1 (1425005_PM_at)", "setting": "[5]", "value": 1.85}, {"measurement": "FC Klre1 (1458642_PM_at)", "setting": "[5]", "value": 1.85}, {"measurement": "FC Ncr1 (1422089_PM_at)", "setting": "[5]", "value": 1.86}, {"measurement": "differentially expressed genes", "setting": "whole blood, 100DMF-vs-Veh, 7 h", "value": "None"}]}, {"smiles": "COC(=O)/C=C/C(=O)O", "note": "[MMF, monomethyl fumarate]", "values": [{"measurement": "Number of genes, DMF Only / MMF Only", "setting": "Blood", "value": 2}, {"measurement": "Bcl3 (1418133_PM_at) differential expression", "setting": "Blood, 2 hr", "value": "−1.23"}, {"measurement": "Sdc1 (1415943_PM_at) differential expression", "setting": "Blood, 12 hr", "value": "−1.96"}, {"measurement": "Number of differentially expressed genes identified: Whole blood", "setting": "[1]", "value": 1}, {"measurement": "Number of differentially expressed genes identified: Whole blood", "setting": "[2]", "value": 0}, {"measurement": "Number of differentially expressed genes identified: Whole blood", "setting": "[3]", "value": 2}, {"measurement": "FC Bcl3 (1418133_PM_at)", "setting": "whole blood, 100MMF-vs-Veh, 2 h", "value": "−1.67"}, {"measurement": "FC 0710007G10Rik /// Tmem175 (1435109_PM_at)", "setting": "[6]", "value": "−1.52"}, {"measurement": "FC Sdc1 (1415943_PM_at)", "setting": "[6]", "value": "−1.96"}, {"measurement": "Bcl3 mRNA fold change vs vehicle", "setting": "whole blood, 2 hr after single 100 mg/kg oral dose", "value": "−1.23"}, {"measurement": "Sdc1 mRNA fold change vs vehicle", "setting": "whole blood, 12 hr after single 100 mg/kg oral dose", "value": "−1.96"}]}]}
